Tested on: Attention Deficit Hyperactivity Disorder (ADHD)-combined type, and Tic Disorder
Assay: Case report: cognition, attention and tics after OMAX3 augmentation
Format: in vivo, human
Settings: for treatment response of tics: past use
Experimental: […] […] Past medication trials included: Strattera (atomoextine), Adderall, Adderall XR, methylphenidate, Tenex (guanfacine), and Concerta. His most recent medication treatment was with Concerta 54 mg per day.
R's Tic Disorder was comprised of both vocal and motor tics in the form of random verbalizations or screeching sounds, as well as either a facial and neck twitch.
The patient was treated with OMAX3, 2 capsules per day (1125 mg EPA, 275 mg DHA, 1500 mg Total Omega-3 fatty acids) for the purpose of enhancing their attention and cognitive function.

SMILES	inattention symptoms (patient's report at baseline, Concerta 54 mg per day, before OMAX3)	treatment response of tics (patient history)	tolerability (past use for tics, patient history)
COC(=O)C(c1ccccc1)C1CCCCN1 (stereo not shown) [Concerta]	sufficiently improved	–	–
Cc1nc2n(c(=O)c1CCN1CCC(c3noc4cc(F)ccc34)CC1)CCCC2 [Risperdal, risperidone]	–	only a partial treatment response	–
N=C(N)NC(=O)Cc1c(Cl)cccc1Cl [Tenex, guanfacine]	–	only a partial treatment response	poor tolerability

Source: patent US20130213851A1, “OMEGA 3 FATTY ACID FORMULATIONS” (CENESTRA LLC., priority 2005, published 2013)
